These compounds were tested against Human Factor D (Homo sapiens (Human), UniProt P00746) (assay: Human Factor D Assay). Conditions: Human Factor D, Table 3; read-out: IC50.
Sequence of Human Factor D (P00746 26-253): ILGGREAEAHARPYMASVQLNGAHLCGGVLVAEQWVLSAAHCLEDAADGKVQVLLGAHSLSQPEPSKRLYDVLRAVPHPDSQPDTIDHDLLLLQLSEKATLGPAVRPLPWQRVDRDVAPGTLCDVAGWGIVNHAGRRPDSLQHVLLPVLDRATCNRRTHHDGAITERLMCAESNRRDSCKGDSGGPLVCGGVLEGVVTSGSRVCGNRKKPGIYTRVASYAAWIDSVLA
Type: biochemical
Summary of the method: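 Thioesterase activity monitored with Z-L-Lys-SBzl plus Ellman's reagent (DTNB), each 100 μM final, after 5 min room-temperature compound preincubation of 80 nM human serum Factor D in pH 7.5 Tris (50 mM)/1M NaCl.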
Work on `CC(=O)c1nn(CC(=O)N2C[C@H](F)C[C@H]2C(=O)Nc2cccc(OC(F)F)n2)c2ccc(-c3cnc(C)nc3)cc12` [Compound 582, (2S,4R)-1-(2-(3-Acetyl-5-(2-methylpyrimidin-5-yl)-1H-indazol-1-yl)acetyl)-N-(6-(difluoromethoxy)pyridin-2-yl)-4-fluoropyrrolidine-2-carboxamide] yielded an IC50 of under 1000 nM. `CC(=O)c1nn(CC(=O)N2C[C@H](F)C[C@H]2C(=O)Nc2cccc(Br)n2)c2ccc(-c3cnc(F)nc3)cc12` [Compound 583, (2S,4R)-1-(2-(3-Acetyl-5-(2-fluoropyrimidin-5-yl)-1H-indazol-1-yl)acetyl)-N-(6-bromopyridin-2-yl)-4-fluoropyrrolidine-2-carboxamide] gave an IC50 of under 1000 nM. Compound `CC(=O)c1cccc(NC(=O)[C@@H]2C[C@@H](F)CN2C(=O)Cn2nc(C(C)=O)c3cc(-c4cnc(C)nc4)ccc32)n1` [Compound 584, (2S,4R)-1-(2-(3-Acetyl-5-(2-methylpyrimidin-5-yl)-1H-indazol-1-yl)acetyl)-N-(6-acetylpyridin-2-yl)-4-fluoropyrrolidine-2-carboxamide] has an IC50 of under 1000 nM. For `CC(=O)c1nn(CC(=O)N2CCC[C@H]2C(=O)Nc2cccc(C)n2)c2ccc(-c3ccc4ccccc4c3)cc12` [Compound 585, (S)-1-(2-(3-Acetyl-5-(naphthalen-2-yl)-1H-indazol-1-yl)acetyl)-N-(6-methylpyridin-2-yl)pyrrolidine-2-carboxamide], the IC50 was over 10000 nM. With `CC(=O)c1nn(CC(=O)N2CC[C@H]2C(=O)Nc2cccc(C)n2)c2ccc(-c3ccc4ccccc4c3)cc12` [Compound 587, (S)-1-(2-(3-Acetyl-5-(naphthalen-2-yl)-1H-indazol-1-yl)acetyl)-N-(6-methylpyridin-2-yl)azetidine-2-carboxamide] the IC50 was over 10000 nM. In the case of `CC(=O)c1nn(CC(=O)N2CC[C@H]2C(=O)Nc2cccc(C)n2)c2ccc(-c3ccc(C)nc3)cc12` [Compound 588, (S)-1-(2-(3-Acetyl-5-(6-methylpyridin-3-yl)-1H-indazol-1-yl)acetyl)-N-(6-methylpyridin-2-yl)azetidine-2-carboxamide], the IC50 is reported as over 10000 nM. With `CC(=O)c1nn(CC(=O)N2CCC[C@H]2C(=O)Nc2cccc(C)n2)c2ccc(-c3ccc4cccnc4c3)cc12` [Compound 589, (S)-1-(2-(3-Acetyl-5-(quinolin-7-yl)-1H-indazol-1-yl)acetyl)-N-(6-methylpyridin-2-yl)pyrrolidine-2-carboxamide] the IC50 was under 1000 nM. `CC(=O)c1nn(CC(=O)N2C[C@H](F)C[C@H]2C(=O)Nc2cccc(Br)n2)c2ccc(-c3cnc(OC4CS(=O)(=O)C4)nc3)cc12` [Compound 591, (2S,4R)-1-(2-(3-Acetyl-5-(2-((1,1-dioxidothietan-3-yl)oxy)pyrimidin-5-yl)-1H-indazol-1-yl)acetyl)-N-(6-bromopyridin-2-yl)-4-fluoropyrrolidine-2-carboxamide] gave an IC50 of under 1000 nM. With `CC(=O)c1nn(CC(=O)N2CCCC[C@@H]2C(=O)Nc2cccc(Br)n2)c2ccc(-c3cnc(C)nc3)cc12` [Compound 592, (R)-1-(2-(3-acetyl-5-(2-methylpyrimidin-5-yl)-1H-indazol-1-yl)acetyl)-N-(6-bromopyridin-2-yl)piperidine-2-carboxamide] the IC50 was over 10000 nM. `CC(=O)c1nn(CC(=O)N2CCCC[C@H]2C(=O)Nc2cccc(Br)n2)c2ccc(-c3cnc(C)nc3)cc12` [Compound 593, (S)-1-(2-(3-Acetyl-5-(2-methylpyrimidin-5-yl)-1H-indazol-1-yl)acetyl)-N-(6-bromopyridin-2-yl)piperidine-2-carboxamide] gave an IC50 of under 1000 nM. Compound `CC(=O)c1cn(CCN2C[C@H](F)C[C@H]2C(=O)Nc2cccc(OC(F)(F)F)c2F)c2ccc(-c3cnc(C)nc3)cc12` [Compound 594, (2S,4R)-1-(2-(3-Acetyl-5-(2-methylpyrimidin-5-yl)-1H-indol-1-yl)ethyl)-4-fluoro-N-(2-fluoro-3-(trifluoromethoxy)phenyl)pyrrolidine-2-carboxamide] has an IC50 of over 10000 nM.

— patent US10287301B2 (Achillion Pharmaceuticals, Inc., priority 2015, dated 2019)
